Experimental data from PMC9138545, “Incorporation of Oxidized Phenylalanine Derivatives into Insulin Signaling Relevant Proteins May Link Oxidative Stress to Signaling Conditions Underlying Chronic Insulin Resistance” (Biomedicines, 2022).
Entries after “also recorded” stand apart in the source; their conditions may differ.

Legend:
[1] = tested on: p-IRS-1 in podocytes; test: Immunofluorescence of p-IRS-1 in insulin-treated podocytes; format: cell-based, human; details: 400 nmol/l insulin for 10 min; for p-IRS-1 intensity: vs. p-Tyr
Procedure: The conditionally immortalized human podocyte cell line (provided by Moin Saleem, University of Bristol, UK) was cultured in RPMI1640 medium (R8756, Sigma Aldrich, Budapest, Hungary) supplemented with 10% heat-inactivated FBS (16170-078, Gibco, Budapest, Hungary), insulin-transferrin-selenium supplement (41400-045, Gibco), 100 U/mL penicillin, 0.1 mg/mL streptomycin (P4333, Sigma), and […] (equimolar to the original p-Tyr content of the medium) para-, meta-, or ortho-Tyr. The cells were grown at 33 °C 5% CO2, and when they reached 40–60% confluency they were transferred to 37 °C to differentiate. Following the thermoswitching, cells were kept on RPMI1640 medium containing 2% FBS, antibiotics, and different tyrosines. Before every treatment, cells were incubated in serum-deprived medium overnight.
In a 6-well plate, 104 cells were cultured on glass coverslips washed with alcohol and dried under UV light. The podocyte cells were grown in RPMI1640 medium supplemented with 10% heat-inactivated FBS at 33 °C, 5% CO2. When they reached 60% confluence, the medium was changed to RPMI1640 medium containing 2% FBS and 112.05 nM of the different tyrosine isoforms, then the plates were transferred to 37 °C, 5% CO2 to allow the cells to differentiate. The different tyrosine isoforms were added to the maintenance medium. The cells were serum deprived overnight, then incubated with 400 nmol/l insulin for 10 min. After removal of the medium, the coverslips were washed twice with PBS. The cells were fixed at room temperature in 2% paraformaldehyde and 4% sucrose for 8 min, then permeabilized using 0.3% Trion X-100 in 1xPBS for 20 min and blocked in 2.5% BSA for 45 min [45]. The primary antibody was diluted in 1xPBS, and the cells were incubated in it for 60 min in humid conditions. The antibodies we used were mouse anti-WT1 antibody (H-1) (1:100, Santa Cruz Biotechnology, Dallas, TX, USA), chicken anti-vimentin antibody (1:100, Abcam), rabbit anti-glucose transporter GLUT4 antibody (1:100, Abcam, Cambridge, UK), mouse Insulin Receptor Substrate-1 antibody (1:100, Invitrogen, Waltham, MA, USA), and rabbit anti-phospho-Insulin Receptor Substrate-1 (pTyr612) antibody (1:10, Sigma). Coverslips were washed in PBS three times for 5 min in PBS and incubated in the fluorophore-conjugated secondary antibodies anti-goat, anti-chicken, secondary antibody Alexa fluor 647, anti-rabbit Alexa fluor 350, and anti-mouse Alexa Fluor 488 (1:10, Invitrogen) for 60 min. Samples were then washed in PBS three times for 5 min and mounted in Vectashield (Vector Laboratories). Images were taken with a Nikon Eclipse Ti2 microscope.

[2] = tested on: concomitant tumor growth; details: ref [42]; cited from earlier work
From the text: (§1) Furthermore, m- and o-Tyr may have a role beyond being markers ROS attack. […] For example, we have described that patients on renal replacement therapy show a connection between plasma levels of o-Tyr and erythropoietin (EPO) resistance. In a further set of experiments, m- and o-Tyr in ...

[3] = tested on: plants; details: ref [41]; cited from earlier work
From the text: as §1

Row | Compound | membrane translocation of IRS-1 / p-IRS-1 [1] | p-IRS-1 intensity [1] | inhibition of concomitant tumor growth [2] | natural herbicide, plant growth [3] | membrane translocation of IRS-1 / p-IRS-1 ([1]; listed as o-Ty)
1 | N[C@@H](Cc1cccc(O)c1)C(=O)O [m-Tyr, meta-tyrosine] | absent; also recorded: not characteristic | lower | involved in the inhibition of concomitant tumor growth | act as a natural herbicide and inhibit the growth of plants | –
2 | NC(Cc1ccccc1O)C(=O)O (stereo not shown) [o-Tyr, ortho-tyrosine] | not characteristic | lower; also recorded: the signal almost disappears | – | – | absent
